This is an account of results in patent US20260199231A1, “FLUTICASONE AND VILANTEROL FORMULATION AND INHALER” (KINDEVA DRUG DELIVERY L.P., priority 2018, published 2026).

Series [1] in a line: Next Generation Impactor (NGI) studies, aerodynamic particle size distribution emitted from MDI. The class given is physicochemical. The settings on record: HFA-152a; for FPM (fine particle mass, particle size less than 5 micrometers, per actuation) / ISM (impactor sized mass, Cups 2-7, MOC and filter, per actuation) / MMAD (mass median aerodynamic diameter) / Throat hold up (throat assembly content divided by total ex-actuator content): Example 1 MDI: 0.1744% FF, 0.0698% vilanterol trifenatate, mean of three MDIs; for FPM (fine particle mass, particle size less than 5 micrometers, per actuation) / ISM (impactor sized mass, Cups 2-7, MOC and filter, per actuation) / MMAD (mass median aerodynamic diameter): 30 L/minute; for Throat hold up (throat assembly content divided by total ex-actuator content): Emmace anatomical throat. As for the experimental part:
The aerodynamic particle size distribution emitted from each MDI was evaluated using a Next Generation Impactor Instrument (MSP Corporation, Shoreview, MN). For each test, an MDI was attached to the throat component (Emmace anatomical throat, Emmace Consulting, Lund, Sweden) of the NGI instrument and actuated 6 times into the instrument. Prior to each actuation the MDI was vigorously shaken. Immediately prior to attachment, the MDI was primed by actuating 4 times. Prior to each priming shot the MDI was vigorously shaken. The flow rate through the instrument during testing was regulated at 30 L/minute. The test sample (fluticasone furoate and vilanterol trifenatate) deposited on the valve stem, actuator, throat assembly (Emmace anatomical throat), individual uncoated collection cups 1-7, micro-orifice collector (MOC), and final filter component was collected by rinsing each individual component with a known volume of collection solvent. The recovered samples were then analyzed for sample content using an HPLC assay with reference to a known standard. An HPLC instrument with a UV detector (220 nm at 0 minutes, 240 nm at 5 minutes) and a symmetry shield RP-18, 4.6-150 mm column (25° C. column temp) was used. The mobile phase was 10 mM SDS, 60:40 (v/v) acetonitrile:50 mM NH4OAc, pH 5.5). The injection volume was 50 microliters and the flow rate was 1.0 mL/min.
Throat hold up was determined as the ratio of the sample content from the throat assembly divided by the total ex-actuator content.
Fine particle mass (FPM) was calculated using CITDAS (Copley Inhaler Testing Data Analysis Software, from Copley Scientific, Nottingham, UK) as the sum of sample content with a particle size less than 5 micrometers (um), reported as micrograms per actuation (mcg/act).
Median mass aerodynamic diameter (MMAD) was calculated using CITDAS (Copley Inhaler Testing Data Analysis Software).
Impactor sized mass (ISM) was determined as the sum of the sample content determined for Cups 2-7, the MOC and the filter, reported as micrograms per actuation (mcg/act).

A short description of series [2]: Delivered dose study (start of unit life, unit spray collection apparatus, HPLC assay). The class given is physicochemical. The note with it: Example 1 MDI: 0.1744% fluticasone furoate, 0.0698% vilanterol trifenatate, 99.7558% HFA-152a; coated 63 microliter valve; 28.3 L/min. Here is the method:
The start of unit life delivered dose was determined using standard unit spray collection apparatus (USCA) fitted with a filter. For each determination, an MDI was attached to the USCA using a coupler and actuated a single time. Immediately prior to attachment, the MDI was vigorously shaken. Prior to collection of the test sample, the MDI was primed by actuating four times. Prior to each priming shot the MDI was vigorously shaken. The flow rate through the equipment was regulated to 28.3 L/min+/−0.5 L/min. The test sample deposited in the USCA was collected by rinsing with a known volume of collection solvent. The recovered samples were then analyzed for sample content using an HPLC assay with reference to a known standard. An HPLC instrument with a UV detector (220 nm at 0 minutes, 240 nm at 5 minutes) and a symmetry shield RP18, 150 mm×4.6 mm (3.5 μm) column (temperature 25° C.) was used. The mobile phase was 10 mM SDS (sodium dodecyl sulphate), 60:40 (v/v) acetetonitrile:50 mM NH4OAc (ammonium acetate), pH 5.50. The injection volume was 50 μl and the flow rate was 1.0 mL/min.

Setting [3] is: Example 2 MDI: 0.8791 wt. % fluticasone furoate, 0.1758 wt. % vilanterol trifenatate, coated 25 microliter valve.
[4] abbreviates: Example 3 MDI: 0.4396 wt. % fluticasone furoate, 0.0879 wt. % vilanterol trifenatate, 50 microliter valve.
Setting [5] is: Example 4 MDI: 0.3489 wt. % fluticasone furoate, 0.0698 wt. % vilanterol trifenatate, 63 microliter valve.
[6] abbreviates: Example 5 MDI: 0.2198 wt. % fluticasone furoate, 0.0440 wt. % vilanterol trifenatate, uncoated 100 microliter valve.
Where [7] appears, read: Example 6 MDI: 0.4396 wt. % fluticasone furoate, 0.1758 wt. % vilanterol trifenatate, coated 25 microliter valve.
Setting [8] is: Example 7 MDI: 0.2198 wt. % fluticasone furoate, 0.0879 wt. % vilanterol trifenatate, 50 microliter valve.
Setting [9] is: Example 8 MDI: 0.1744 wt. % fluticasone furoate, 0.0698 wt. % vilanterol trifenatate, 63 microliter valve.
Setting [10] is: Example 9 MDI: 0.1099 wt. % fluticasone furoate, 0.0440 wt. % vilanterol trifenatate, uncoated 100 microliter valve.

For the compound `C[C@@H]1C[C@H]2[C@@H]3C[C@H](F)C4=CC(=O)C=C[C@]4(C)[C@@]3(F)[C@@H](O)C[C@]2(C)[C@@]1(OC(=O)c1ccco1)C(=O)SCF` [FF, fluticasone furoate], in series [1] (63 microliter valve), the “FPM (fine particle mass, particle size less than 5 micrometers, per actuation)” value was 21.6 µg. Further, the “ISM (impactor sized mass, Cups 2-7, MOC and filter, per actuation)” value in series [1] (63 microliter valve) was 29.7 µg. Further, the “MMAD (mass median aerodynamic diameter)” value in series [1] (63 microliter valve) came out at 3.3 um. In series [1] (63 microliter valve), the “Throat hold up (throat assembly content divided by total ex-actuator content)” value was 70.8%. For the same compound, the “calculated FPM” value in series [1] (setting [3]) is 104.9 micrograms/actuation; in series [1] (setting [4]) it was 69.3 micrograms/actuation; in series [1] (setting [5]), 55.9 micrograms/actuation; in series [1] (setting [6]), 45.2 micrograms/actuation; in series [1] (setting [7]) it was 41.0 micrograms/actuation; in series [1] (setting [8]) it was 26.3 micrograms/actuation. The “calculated FPM” value in series [1] (setting [9]) was 23.8 micrograms/actuation; in series [1] (setting [10]), 19.3 micrograms/actuation. Further, the “calculated MMAD” value in series [1] (setting [3]) is reported as 3.5 micrometers; in series [1] (setting [4]) it was 3.4 micrometers; in series [1] (setting [5]), 3.3 micrometers; in series [1] (setting [6]), 3.3 micrometers; in series [1] (setting [7]), 3.1 micrometers; in series [1] (setting [8]), 2.9 micrometers. For the same compound, the entries for the “calculated MMAD” value in series [1] (setting [9]) and in series [1] (setting [10]) were 3.0 micrometers and 3.2 micrometers, respectively. The “Start of life dose content uniformity (delivered dose)” value in series [2] is listed as 90.9 mcg/actuation.

Regarding `OCc1cc([C@@H](O)CNCCCCCCOCCOCc2c(Cl)cccc2Cl)ccc1O` [V, vilanterol], the “FPM (fine particle mass, particle size less than 5 micrometers, per actuation)” value in series [1] (63 microliter valve) worked out at 9.2 µg. The “ISM (impactor sized mass, Cups 2-7, MOC and filter, per actuation)” value in series [1] (63 microliter valve) turned out to be 10.1 µg. Also, in series [1] (63 microliter valve), the “MMAD (mass median aerodynamic diameter)” value was 1.9 um. Besides, in series [1] (63 microliter valve), the “Throat hold up (throat assembly content divided by total ex-actuator content)” value stood at 61.4%. In addition, the “calculated FPM” value in series [1] (setting [3]) is on record as 13.6 micrograms/actuation; in series [1] (setting [4]), 8.8 micrograms/actuation; in series [1] (setting [5]), 6.7 micrograms/actuation; in series [1] (setting [6]), 5.5 micrograms/actuation; in series [1] (setting [7]) it was 11.4 micrograms/actuation; in series [1] (setting [8]) it was 7.7 micrograms/actuation. Further, the “calculated FPM” value in series [1] (setting [9]) was 5.9 micrograms/actuation; in series [1] (setting [10]), 4.2 micrograms/actuation. The “calculated MMAD” value in series [1] (setting [3]) is listed as 2.6 micrometers; in series [1] (setting [4]), 2.7 micrometers; in series [1] (setting [5]), 2.3 micrometers; in series [1] (setting [6]), 2.5 micrometers; in series [1] (setting [7]) it was 2.1 micrometers; in series [1] (setting [8]), 2.2 micrometers. The entries for the “calculated MMAD” value in series [1] (setting [9]) and in series [1] (setting [10]) were 2.3 micrometers and 2.6 micrometers, respectively. The “Start of life dose content uniformity (delivered dose)” value in series [2] worked out at 23.1 mcg/actuation.
